The text below walks through data of US10259810B2, “N-sulfonylated pyrazolo[3,4-b]pyridin-6-carboxamides and method of use” (AbbVie S.à.r.l., priority 2015, dated 2019).

As usually defined, the EC50 is the midpoint of the concentration-response curve.

Test [1] has as its target T1, ΔF508-CFTR (Homo sapiens, UniProt P13569, DEL508-508).
T1 construct: host or cells: CFBE41o-, doxycycline-inducible
Kind of test: CFTR cell surface levels using HRP-tagged ΔF508-CFTR expressing CFBE cells, in the presence of a co-corrector. The class given is cell-based. Conditions: HRP-tagged ΔF508-CFTR CFBE cells, in the presence of 3 μM co-corrector; for EC50: read-out: EC50. The essentials:
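Chemiluminescent read-out of surface HRP (15 min, dark) after PBS washes. Activity is normalized as 100×(sample−DMSO)/(3 μM co-corrector alone−DMSO).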

In test [2] the target is T1, ΔF508-CFTR. Kind of test: CFTR cell surface levels using HRP-tagged ΔF508-CFTR expressing CFBE cells, intrinsic corrector capacity. Type of test: cell-based. Details: % Activation: concentration or dose not given beside the values. Conditions: HRP-tagged ΔF508-CFTR expressing CFBE41o- cells, compound alone (intrinsic corrector capacity), 20 hours at 33° C.; for EC50: read-out: EC50. The method, boiled down:
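Read-out: chemiluminescent HRP activity of ECL4-HRP-tagged ΔF508-CFTR at the cell surface, 15 min substrate in dark. Normalized as 100×(sample−DMSO)/(positive control−DMSO).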

T1 sequence (P13569 with tags, fused parts or gaps DEL508-508): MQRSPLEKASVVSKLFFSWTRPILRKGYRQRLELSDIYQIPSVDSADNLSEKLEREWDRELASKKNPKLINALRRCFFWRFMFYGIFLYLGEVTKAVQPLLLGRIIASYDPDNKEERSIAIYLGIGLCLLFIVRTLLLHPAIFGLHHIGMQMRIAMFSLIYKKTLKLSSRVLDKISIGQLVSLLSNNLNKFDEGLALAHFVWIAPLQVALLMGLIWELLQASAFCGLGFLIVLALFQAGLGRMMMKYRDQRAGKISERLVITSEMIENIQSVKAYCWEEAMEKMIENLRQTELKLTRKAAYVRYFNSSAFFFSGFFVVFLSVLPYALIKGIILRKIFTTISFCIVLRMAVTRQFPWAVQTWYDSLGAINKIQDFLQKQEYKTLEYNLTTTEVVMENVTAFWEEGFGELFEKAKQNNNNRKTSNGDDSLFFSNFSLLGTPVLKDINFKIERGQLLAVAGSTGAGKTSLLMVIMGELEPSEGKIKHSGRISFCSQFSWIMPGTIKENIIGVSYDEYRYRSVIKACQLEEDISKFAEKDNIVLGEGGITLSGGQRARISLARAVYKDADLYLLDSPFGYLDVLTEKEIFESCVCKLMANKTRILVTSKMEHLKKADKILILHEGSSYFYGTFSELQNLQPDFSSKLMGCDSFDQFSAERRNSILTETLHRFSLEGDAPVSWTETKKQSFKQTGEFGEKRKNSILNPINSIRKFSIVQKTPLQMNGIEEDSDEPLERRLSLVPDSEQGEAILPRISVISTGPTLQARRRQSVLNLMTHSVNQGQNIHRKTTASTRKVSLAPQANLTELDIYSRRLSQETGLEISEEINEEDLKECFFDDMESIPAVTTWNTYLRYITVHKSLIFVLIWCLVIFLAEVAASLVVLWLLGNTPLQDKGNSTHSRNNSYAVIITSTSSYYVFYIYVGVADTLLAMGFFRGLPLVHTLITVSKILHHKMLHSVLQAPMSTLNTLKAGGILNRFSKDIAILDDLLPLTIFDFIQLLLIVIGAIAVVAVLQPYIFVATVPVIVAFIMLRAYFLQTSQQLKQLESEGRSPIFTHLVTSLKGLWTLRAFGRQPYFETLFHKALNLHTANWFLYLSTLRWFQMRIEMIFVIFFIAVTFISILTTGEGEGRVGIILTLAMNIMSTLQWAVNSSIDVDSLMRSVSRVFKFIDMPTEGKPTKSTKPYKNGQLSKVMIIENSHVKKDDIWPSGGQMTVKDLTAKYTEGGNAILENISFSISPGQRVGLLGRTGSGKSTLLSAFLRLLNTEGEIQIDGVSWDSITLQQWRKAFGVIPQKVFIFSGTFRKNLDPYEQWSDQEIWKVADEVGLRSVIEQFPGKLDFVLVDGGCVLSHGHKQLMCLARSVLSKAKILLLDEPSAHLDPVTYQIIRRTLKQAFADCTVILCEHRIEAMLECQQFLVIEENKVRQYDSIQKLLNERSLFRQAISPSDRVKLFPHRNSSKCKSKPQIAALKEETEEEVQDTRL

As to `Cc1cccc(-n2nc(C(C)C)c3c(N4CCC5(C4)CC5(F)F)cc(C(=O)NS(C)(=O)=O)nc32)c1` (centres unmarked) [Compound 149, 4-(1,1-difluoro-5-azaspiro[2.4]heptan-5-yl)-N-(methanesulfonyl)-1-(3-methylphenyl)-3-(propan-2-yl)-1H-pyrazolo[3,4-b]pyridine-6-carboxamide], in test [1], the “% Activation” value worked out at 299.95% and the EC50 is 259 nM. Further, in test [2], the “% Activation” value came out at 122.3% and the EC50 was determined as 386 nM.

For `CC(C)OC1CCN(c2cc(C(=O)NS(C)(=O)=O)nc3c2c(C2CCC2)nn3-c2ccccc2)CC1` [Compound 151, 3-cyclobutyl-N-(methanesulfonyl)-1-phenyl-4-{4-[(propan-2-yl)oxy]piperidin-1-yl}-1H-pyrazolo[3,4-b]pyridine-6-carboxamide], in test [1], the “% Activation” value came out at 387.15% and the EC50 came to 109 nM. Further, in test [2], the “% Activation” value turned out to be 228.95% and the EC50 worked out at 347 nM.

In the case of `COCC1CCCN(c2cc(C(=O)NS(C)(=O)=O)nc3c2c(C2CCC2)nn3-c2ccccc2)C1` (centres unmarked) [Compound 153, 3-cyclobutyl-N-(methanesulfonyl)-4-[3-(methoxymethyl)piperidin-1-yl]-1-phenyl-1H-pyrazolo[3,4-b]pyridine-6-carboxamide], in test [1], the “% Activation” value is given as 290.05% and the EC50 amounted to 130 nM. For the same compound, in test [2], the “% Activation” value is on record as 146.7% and the EC50 was 355 nM.

As to `CS(=O)(=O)NC(=O)c1cc(N2CCC(OCC(=O)N3CCCC3)CC2)c2c(C3CCC3)nn(-c3ccccc3)c2n1` [Compound 154, 3-cyclobutyl-N-(methanesulfonyl)-4-{4-[2-oxo-2-(pyrrolidin-1-yl)ethoxy]piperidin-1-yl}-1-phenyl-1H-pyrazolo[3,4-b]pyridine-6-carboxamide], in test [1], the “% Activation” value amounted to 447.85% and the EC50 was found to be 203 nM. Also, in test [2], the “% Activation” value was 275.65% and the EC50 worked out at 533 nM.

`COCC1CCN(c2cc(C(=O)NS(C)(=O)=O)nc3c2c(C(C)C)nn3-c2cccc(C)c2)CC1` [Compound 156, N-(methanesulfonyl)-4-[4-(methoxymethyl)piperidin-1-yl]-1-(3-methylphenyl)-3-(propan-2-yl)-1H-pyrazolo[3,4-b]pyridine-6-carboxamide]: in test [1], the “% Activation” value is 636.47% and the concentration giving a half-maximal response (EC50) came out at 360 nM. For the same compound, in test [2], the “% Activation” value is recorded as 411% and the EC50 came to 439 nM.

Consider `CC(C)c1nn(-c2cccc(N(C)C)c2)c2nc(C(=O)NS(C)(=O)=O)cc(N3CCCCC3)c12` [Compound 157, 1-[3-(dimethylamino)phenyl]-N-(methanesulfonyl)-4-(piperidin-1-yl)-3-(propan-2-yl)-1H-pyrazolo[3,4-b]pyridine-6-carboxamide], for which, in test [1], the “% Activation” value was 542.17% and the EC50 is 359 nM. For the same compound, in test [2], the “% Activation” value turned out to be 327.8% and the EC50 is 460 nM.

Take `CS(=O)(=O)NC(=O)c1cc(N2CCC3(CCO3)CC2)c2c(C3CCC3)nn(-c3ccccc3)c2n1` [Compound 159, 3-cyclobutyl-N-(methanesulfonyl)-4-(1-oxa-7-azaspiro[3.5]nonan-7-yl)-1-phenyl-1H-pyrazolo[3,4-b]pyridine-6-carboxamide]: in test [1], the “% Activation” value is reported as 270.3% and the EC50 is 483 nM. For the same compound, in test [2], the “% Activation” value is 103.02% and the EC50 was found to be 661 nM.

For `COCCC1CCN(c2cc(C(=O)NS(C)(=O)=O)nc3c2c(C(C)C)nn3-c2cccc(C)c2)CC1` [Compound 161, N-(methanesulfonyl)-4-[4-(2-methoxyethyl)piperidin-1-yl]-1-(3-methylphenyl)-3-(propan-2-yl)-1H-pyrazolo[3,4-b]pyridine-6-carboxamide], in test [1], the “% Activation” value came out at 574.1% and the EC50 turned out to be 355 nM. Besides, in test [2], the “% Activation” value was 406.4% and the EC50 amounted to 730 nM.
